In publication PMC6684646, “Lysosomal integral membrane protein-2 (LIMP-2/SCARB2) is involved in lysosomal cholesterol export” (Nature Communications, 2019):

Columns and labels:
[1] = target: T1, LIMP-2 ectodomain (His6.hLIMP-2(aa35-430)) (Homo sapiens, UniProt Q14108); assay: microscale thermophoresis; format: binding; conditions: 25 nM protein labelled with Red-tris-NTA; 300 mM NaAc pH 6.0, 150 mM NaCl, 0.05% Tween 20, 0.1% Fos-Choline 13; room temperature; read-out: EC50
T1 construct: gene SCARB2; luminal domain aa 35-430, N-terminal His6 tag (cloned after a protein A tag)
T1 sequence (Q14108 35-430): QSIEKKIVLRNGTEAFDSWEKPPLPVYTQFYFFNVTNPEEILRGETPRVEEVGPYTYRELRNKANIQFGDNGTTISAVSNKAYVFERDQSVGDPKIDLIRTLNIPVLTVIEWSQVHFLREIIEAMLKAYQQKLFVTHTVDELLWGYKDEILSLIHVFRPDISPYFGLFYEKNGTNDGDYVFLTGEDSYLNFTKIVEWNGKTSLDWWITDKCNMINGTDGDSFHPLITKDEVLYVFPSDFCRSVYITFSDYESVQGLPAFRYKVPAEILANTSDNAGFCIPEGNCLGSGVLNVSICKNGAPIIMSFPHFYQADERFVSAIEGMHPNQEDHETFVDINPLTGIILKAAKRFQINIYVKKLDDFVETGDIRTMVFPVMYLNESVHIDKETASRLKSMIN
From the text: microscale thermophoresis on LIMP-2 ectodomain (His6.hLIMP-2(aa35-430)) | direct interaction between purified, soluble His-tagged LIMP-2 protein labeled with Red-tris-NTA dye and cholesterol

[2] = target: T1, LIMP-2 ectodomain (His6.hLIMP-2(aa35-430)); assay: UV crosslinking and click rhodamine, SDS-PAGE; format: binding; conditions: covalent; labelled compound; 50 µM probe, 12 h at 4 °C, UV 15 min

Row | Kd [1] | SMILES | UV crosslinking and click rhodamine, SDS-PAGE [2]
1 | 112 ± 32 nM | CC(C)CCC[C@@H](C)[C@H]1CC[C@H]2[C@@H]3CC=C4C[C@@H](O)CC[C@]4(C)[C@H]3CC[C@]12C [cholesterol] | 
2 |  | C#CCCCC1(CCCCCCCCC(=O)N[C@@H](CO)[C@H](O)/C=C/CCCCCCCCCCCCC)N=N1 [pacFA ceramide] | fatty acids, ceramide and sphingosine bound with lower affinity
3 |  | C#CCCCC1(CCCCCCCCC(=O)O)N=N1 [pacFA] | fatty acids, ceramide and sphingosine bound with lower affinity
4 |  | C#CCCCC1(CCCCCCCC/C=C/[C@@H](O)[C@@H](N)CO)N=N1 [photoclick sphingosine] | fatty acids, ceramide and sphingosine bound with lower affinity
